Patent US20250195468A1, “METHODS AND COMPOSITIONS FOR TREATING COLORECTAL CANCER WITH INDOXYL SULFATE” (National Institute of Immunology, priority 2023, published 2025)

Tested on: Balb/c mice
Test: Animal study: effect on normal colonic cells (organ length, body weight, histology, symptoms)
Conditions: control groups (negative / positive control), 12 weeks
Experimental: Wild-type Balb/c mice were obtained from Jackson Laboratory, USA, and housed in plastic cages with free access to water and food. The mice were randomly assigned to five test groups, which included three control groups: vehicle control, negative control (100 mM sodium propionate), and positive control (AOM (Azoxymethane)/DSS). Additionally, there were two experimental groups receiving 100 mM of indoxyl sulfate, one via intraperitoneal (IP) administration and the other via intrarectal (IR) administration. Each group consisted of six mice. In the AOM/DSS group, AOM was injected intraperitoneally at a dosage of 10 mg/kg bodyweight. The AOM was injected only once on the 1st day of experiment. The positive control mice received 2% DSS for 7 days in the first week, fourth week, and seventh week. […]
The colon was collected from each mouse for subsequent histology studies. […] Various parameters, including tumor localization (proximal or distal bowel, rectum, cecum, ileocecal valve), tumor number, cancer stage (dysplasia/adenoma or adenocarcinoma, determined by infiltration into the muscular mucosa), immune cell infiltration, and inflammation, were assessed. Bowel inflammation was evaluated by observing immune cell infiltration and the presence or absence of mucous membranes using a 10× objective. […]

SMILES: CCC(=O)[O-].[Na+] [Propionate, sodium propionate]
- Length of large intestine (mean ± SD): 9.98 ± 0.67 cm
- Length of spleen (mean ± SD): 1.5 ± 0.08 cm
